Among the data in ChEMBL document CHEMBL1151591, “Structure-activity relationship of novel tallimustine derivatives: synthesis and antitumor activity” (Bioorg Med Chem Lett, 1996) are T/C, IC50 and Optimal dose values, retold here.

In test [1] the test system is Mus musculus. Briefly: In vivo cytotoxicity against L1210 murine leukemia, expressed as median survival time of treated vs. untreated mice X 100 (CDF21 mice were given an injection of 105 cells i.p. and treated on day 1). The test is classed as functional.
Test [2] relates to L1210. Briefly: In vitro inhibition of L1210 murine leukemia (Drug sensitivity was determined by counting surviving cells after 48 hr of continuous exposure to at least 4 conc. of drug). The test is classed as functional, cell-based. The settings on record: Mus musculus, L1210, 48 h.
In test [3] the test system is Mus musculus. The test can be described thus: In vivo inhibition of L1210 murine leukemia, expressed as optimal dose (CDF21 mice were given an injection of 105 cells i.p. and treated on day 1). Type of test: functional.

By T/C is commonly meant the result in the treated group divided by that in the control group, in per cent. The IC50 is the concentration that inhibits the measured activity by half. A lower IC50 goes with greater potency in that assay. Take `Cl.Cn1cc(NC(=O)c2cc(NC(=O)c3cc(NC(=O)c4ccc(N(CCCl)CCCl)cc4)nn3C)cn2C)cc1C(=O)NCCC(=N)N`: the T/C in test [1] worked out at 118%. Also, the IC50 in test [2] amounted to 1.39 µg/mL. In addition, in test [3], the Optimal dose came out at 12.5 mg/kg.

Turning to `C=C(Br)C(=O)Nc1cc(C(=O)Nc2cc(C(=O)Nc3cc(C(=O)NCCC(=N)N)n(C)c3)n(C)c2)n(C)n1.Cl`, the T/C in test [1] came to 181%. For the same compound, the IC50 in test [2] was found to be 0.15 µg/mL. In test [3], this compound came in with an Optimal dose of 30 mg/kg.

The compound `Cl.Cn1cc(NC(=O)c2cc(NC(=O)c3cc(NC(=O)c4ccc(N(CCCl)CCCl)cc4)cn3C)cn2C)cc1C(=O)NCCC(=N)N` [TALLIMUSTINE CHLORIDE] registered a T/C in test [1] of 175%. The compound further registered an Optimal dose in test [3] of 3.13 mg/kg.

On to `Cl.Cn1cc(NC(=O)c2cc(NC(=O)c3csc(NC(=O)c4ccc(N(CCCl)CCCl)cc4)n3)cn2C)cc1C(=O)NCCC(=N)N`, for which the half-inhibitory concentration (IC50) in test [2] was determined as 32.5 µg/mL.

Turning to `Cl.Cn1cc(NC(=O)c2csc(NC(=O)c3ccc(N(CCCl)CCCl)cc3)n2)cc1C(=O)Nc1cc(C(=O)NCCC(=N)N)n(C)n1`, it took 7.2 µg/mL to reach half-maximal inhibition in test [2] (IC50).

For `Cl.Cn1cc(NC(=O)c2ccc(N(CCCl)CCCl)cc2)cc1C(=O)Nc1cc(C(=O)Nc2cc(C(=O)NCCC(=N)N)n(C)n2)n(C)n1`, the T/C in test [1] is given as 259%. The compound further displayed an IC50 in test [2] of 0.11 µg/mL. The same compound gave an Optimal dose in test [3] of 25 mg/kg.

As for `Cl.Cn1cc(NC(=O)c2ccc(N(CCCl)CCCl)cc2)cc1C(=O)Nc1cc(C(=O)Nc2cc(C(=O)NCCC(=N)N)n(C)n2)n(C)c1`, the T/C in test [1] turned out to be 213%. Further, the IC50 in test [2] came out at 0.03 µg/mL. This compound came in with an Optimal dose in test [3] of 6.25 mg/kg.

On to `C=C(Br)C(=O)Nc1nc(C(=O)Nc2cc(C(=O)Nc3cc(C(=O)NCCC(=N)N)n(C)c3)n(C)c2)cs1.Cl`, for which, in test [2], the IC50 came to 23.8 µg/mL.
